Where only a bound is given, the exact number is not on record here.

Data on nine compounds can be found in ChEMBL document CHEMBL1128095, “3,4-diarylthiophenes are selective COX-2 inhibitors” (Bioorg Med Chem Lett, 1995).

Test [1] has as its target Prostaglandin G/H synthase 1 (Homo sapiens, UniProt P23219). As to the kind of experiment: Inhibitory activity against human recombinant Prostaglandin G/H synthase 1.
Test [2] deals with T1, Prostaglandin G/H synthase 2 (Homo sapiens, UniProt P35354).
T1 sequence (P35354 whole entry): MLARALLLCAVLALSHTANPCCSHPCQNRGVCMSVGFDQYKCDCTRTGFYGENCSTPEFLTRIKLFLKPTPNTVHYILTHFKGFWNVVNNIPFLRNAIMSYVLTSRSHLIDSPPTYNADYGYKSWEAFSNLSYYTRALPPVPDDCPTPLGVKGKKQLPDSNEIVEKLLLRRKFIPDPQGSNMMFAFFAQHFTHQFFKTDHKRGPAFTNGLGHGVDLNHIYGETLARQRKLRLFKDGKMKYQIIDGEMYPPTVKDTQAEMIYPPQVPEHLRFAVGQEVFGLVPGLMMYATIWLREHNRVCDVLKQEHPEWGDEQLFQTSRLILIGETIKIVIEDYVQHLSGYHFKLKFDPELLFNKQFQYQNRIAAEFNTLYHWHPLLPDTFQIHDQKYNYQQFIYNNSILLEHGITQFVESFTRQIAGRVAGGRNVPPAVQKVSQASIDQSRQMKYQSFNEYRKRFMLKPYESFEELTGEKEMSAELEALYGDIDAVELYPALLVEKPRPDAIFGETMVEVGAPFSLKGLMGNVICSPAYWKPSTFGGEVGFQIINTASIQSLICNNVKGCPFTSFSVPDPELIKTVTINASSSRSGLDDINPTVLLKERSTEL
Description: Inhibitory activity against human recombinant Prostaglandin G/H synthase 2

The subject of the next test is Rattus norvegicus. Briefly: Compound was tested for its ability to inhibit carrageenan rat foot edema at 10 mg/kg dose. The test is classed as functional. A general note: The carrageenan paw model is a standard test of acute inflammation.

Prostaglandin G/H synthase 1, sequence (P23219 whole entry): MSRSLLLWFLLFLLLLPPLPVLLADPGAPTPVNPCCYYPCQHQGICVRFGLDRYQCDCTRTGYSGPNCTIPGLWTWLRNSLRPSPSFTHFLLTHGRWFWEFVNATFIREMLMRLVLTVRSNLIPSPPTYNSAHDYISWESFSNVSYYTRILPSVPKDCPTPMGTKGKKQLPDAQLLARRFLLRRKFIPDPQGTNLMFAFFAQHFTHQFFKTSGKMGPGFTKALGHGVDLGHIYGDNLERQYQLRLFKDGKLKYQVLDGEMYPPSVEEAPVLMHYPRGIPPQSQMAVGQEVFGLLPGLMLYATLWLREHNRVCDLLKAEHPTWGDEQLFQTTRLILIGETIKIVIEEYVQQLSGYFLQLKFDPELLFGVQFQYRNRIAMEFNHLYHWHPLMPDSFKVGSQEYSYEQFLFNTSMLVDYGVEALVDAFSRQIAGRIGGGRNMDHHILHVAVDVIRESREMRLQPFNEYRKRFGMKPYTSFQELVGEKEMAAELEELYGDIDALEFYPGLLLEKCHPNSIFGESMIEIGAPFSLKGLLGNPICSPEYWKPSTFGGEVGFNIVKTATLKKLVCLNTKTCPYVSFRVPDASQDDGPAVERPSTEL

As for `COc1ccc(-c2cscc2-c2ccc(S(C)(=O)=O)cc2)cc1F`, the IC50 (commonly the concentration at which inhibition is half-maximal) in test [1] is over 100 µM; in test [2] it was 0.03 µM.
Turning to `NS(=O)(=O)c1ccc(-c2cscc2-c2ccc(F)cc2)cc1`, the figures for the IC50 in test [1] and in test [2] were 1.8 µM and 0.008 µM, respectively. Further, in the test on Rattus norvegicus, the inhibition in vivo (usually the change of the read-out against control, counted positive when it falls) at 10 mg/kg is 46.5%.
For `CS(=O)(=O)c1ccc(-c2c(Br)sc(Br)c2-c2ccc(F)cc2)cc1`, the values for the IC50 in test [1] and in test [2] were over 1000 µM and 0.7 µM, respectively.
`CS(=O)(=O)c1ccc(-c2cscc2-c2ccc(F)cc2)cc1`: the 50% inhibitory concentration (IC50) in test [1] is over 1000 µM; in test [2] it was 0.08 µM. The inhibition in vivo at 10 mg/kg in the test on Rattus norvegicus came to 33%.
Regarding `CS(=O)(=O)c1ccc(-c2csc(Br)c2-c2ccc(F)cc2)cc1`, the IC50 in test [1] was 5.2 µM. This compound returned an inhibition in vivo at 10 mg/kg with Rattus norvegicus of 30%.
As to `COc1ccc(-c2cscc2-c2ccc(S(N)(=O)=O)cc2)cc1F`, the figures for the IC50 in test [1] and in test [2] were 10 µM and 0.009 µM, respectively.
On to `CS(=O)(=O)c1ccc(-c2c(-c3ccc(F)cc3)csc2Br)cc1`, for which the IC50 in test [1] and in test [2] was over 100 µM in each case.
Take `COc1ccc(-c2cscc2-c2ccc(S(C)(=O)=O)cc2)cc1`: the IC50 in test [1] is 0.9 µM; in test [2], 0.05 µM.
For the compound `CS(=O)(=O)c1ccc(-c2cc(Br)sc2-c2ccc(F)cc2)cc1` [DUP-697], in the test with Rattus norvegicus, the inhibition in vivo at 10 mg/kg turned out to be 57%.
